Results: PubChem BioAssay (NCI)
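Cultured in 96-well plates, cells were exposed to test compound for 48 hours across five concentrations. Abbreviation: GI50, concentration required for 50% inhibition of growth. Definition used: TGI = concentration required for complete inhibition of growth.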

Key:
Test in all cases: inhibition of tumour cell growth, NCI panel, 48 h
786-0 renal = system: 786-0 renal
A498 renal = system: A498 renal
CAKI-1 renal = system: CAKI-1 renal
CCRF-CEM leukemia = system: CCRF-CEM leukemia
DU-145 prostate = system: DU-145 prostate
EKVX NSCLC = system: EKVX NSCLC
HCC-2998 colon = system: HCC-2998 colon
HCT-15 colon = system: HCT-15 colon
HS 578T breast = system: HS 578T breast
KM12 colon = system: KM12 colon
LOX IMVI melanoma = system: LOX IMVI melanoma
MALME-3M melanoma = system: MALME-3M melanoma
MCF7 breast = system: MCF7 breast
MDA-MB-435 = system: MDA-MB-435
MDA-MB-468 breast = system: MDA-MB-468 breast
NCI-H522 lung = system: NCI-H522 lung
OVCAR-3 ovarian = system: OVCAR-3 ovarian
OVCAR-5 ovarian = system: OVCAR-5 ovarian
RPMI-8226 leukemia = system: RPMI-8226 leukemia
RXF 393 renal = system: RXF 393 renal
SF-268 CNS = system: SF-268 CNS
SF-295 CNS = system: SF-295 CNS
SF-539 CNS = system: SF-539 CNS
SK-MEL-2 melanoma = system: SK-MEL-2 melanoma
SK-MEL-5 melanoma = system: SK-MEL-5 melanoma
SK-OV-3 ovarian = system: SK-OV-3 ovarian
SN12C renal = system: SN12C renal
SNB-75 CNS = system: SNB-75 CNS
SR leukemia = system: SR leukemia
T-47D breast = system: T-47D breast
TK-10 renal = system: TK-10 renal
UACC-257 melanoma = system: UACC-257 melanoma
UACC-62 melanoma = system: UACC-62 melanoma

In the case of Cn1cc(-c2cc(N)n3nc(-c4c[nH]c5ccc(Br)cc45)cc3n2)c2cccnc21, the GI50 (786-0 renal) is reported as 1.57 µM, the TGI (786-0 renal) is reported as 3 µM and the GI50 (A498 renal) is reported as 1.72 µM. The TGI (A498 renal) was 3.63 µM, the GI50 (CAKI-1 renal) was 1.8 µM and the TGI (CAKI-1 renal) was 3.86 µM. For the same compound, the GI50 (CCRF-CEM leukemia) was 3.84 µM, the TGI (CCRF-CEM leukemia) was > 100 µM and the GI50 (DU-145 prostate) was 1.82 µM. It also gave a TGI (DU-145 prostate) of 3.4 µM, a GI50 (EKVX NSCLC) of 2.34 µM and a TGI (EKVX NSCLC) of 6.04 µM. The GI50 (HCC-2998 colon) was 1.82 µM, the TGI (HCC-2998 colon) was 3.27 µM and the GI50 (HCT-15 colon) was 2.71 µM. The TGI (HCT-15 colon) was 8.28 µM, the GI50 (HS 578T breast) was 2.32 µM and the TGI (HS 578T breast) was 5.61 µM. The GI50 (KM12 colon) was 1.78 µM, the TGI (KM12 colon) was 3.35 µM and the GI50 (LOX IMVI melanoma) was 1.82 µM. For the same compound, the TGI (LOX IMVI melanoma) was 3.21 µM, the GI50 (MALME-3M melanoma) was 1.52 µM and the TGI (MALME-3M melanoma) was 2.91 µM. The GI50 (MCF7 breast) was 3.01 µM, the TGI (MCF7 breast) was > 100 µM and the GI50 (MDA-MB-435) was 1.7 µM. It also gave a TGI (MDA-MB-435) of 3.16 µM, a GI50 (MDA-MB-468 breast) of 1.59 µM and a TGI (MDA-MB-468 breast) of 3.24 µM. For the same compound, the GI50 (NCI-H522 lung) was 1.85 µM, the TGI (NCI-H522 lung) was 3.54 µM and the GI50 (OVCAR-3 ovarian) was 1.67 µM. For the same compound, the TGI (OVCAR-3 ovarian) was 3.12 µM, the GI50 (OVCAR-5 ovarian) was 1.41 µM and the TGI (OVCAR-5 ovarian) was 3.24 µM. The GI50 (RPMI-8226 leukemia) was 4.04 µM, the TGI (RPMI-8226 leukemia) was > 100 µM and the GI50 (RXF 393 renal) was 1.65 µM. For the same compound, the TGI (RXF 393 renal) was 3.24 µM, the GI50 (SF-268 CNS) was 2.03 µM and the TGI (SF-268 CNS) was 4.71 µM. It also gave a GI50 (SF-295 CNS) of 2.2 µM, a TGI (SF-295 CNS) of 5.09 µM and a GI50 (SF-539 CNS) of 1.58 µM. The TGI (SF-539 CNS) was 2.97 µM, the GI50 (SK-MEL-2 melanoma) was 17.2 µM and the TGI (SK-MEL-2 melanoma) was 40 µM. For the same compound, the GI50 (SK-MEL-5 melanoma) was 1.75 µM, the TGI (SK-MEL-5 melanoma) was 3.28 µM and the GI50 (SK-OV-3 ovarian) was 22.8 µM. It also gave a TGI (SK-OV-3 ovarian) of 44.4 µM, a GI50 (SN12C renal) of 1.82 µM and a TGI (SN12C renal) of 3.72 µM. For the same compound, the GI50 (SNB-75 CNS) was 1.29 µM, the TGI (SNB-75 CNS) was 2.57 µM and the GI50 (SR leukemia) was 2.72 µM. The TGI (SR leukemia) was > 100 µM, the GI50 (T-47D breast) was 2.03 µM and the TGI (T-47D breast) was 5.07 µM. For the same compound, the GI50 (TK-10 renal) was 2.11 µM, the TGI (TK-10 renal) was 7.4 µM and the GI50 (UACC-257 melanoma) was 1.75 µM. The TGI (UACC-257 melanoma) was 3.48 µM, the GI50 (UACC-62 melanoma) was 1.73 µM and the TGI (UACC-62 melanoma) was 3.17 µM.

O=C(/C=C\c1cccc([N+](=O)[O-])c1)c1ccccc1 was tested, and the GI50 (MDA-MB-468 breast) was 1.65 µM and the TGI (MDA-MB-468 breast) was 9.51 µM.

In the case of Cc1ccccc1NC(=O)N/C(N)=N/c1nc2ccccc2s1, the GI50 (MDA-MB-468 breast) is reported as 0.233 µM and the TGI (MDA-MB-468 breast) is reported as > 100 µM.

O=C(NNc1nc2cc(F)ccc2n2cccc12)c1ccncn1 was tested, and the GI50 (MDA-MB-468 breast) was 0.293 µM and the TGI (MDA-MB-468 breast) was 1.65 µM.

For CCCCCCCCCCCCCCCCCC(=O)[O][Sn]([CH2]CCC)([CH2]CCC)[CH2]CCC, the GI50 (MDA-MB-468 breast) was 0.0835 µM and the TGI (MDA-MB-468 breast) was 0.214 µM.

For Clc1ccc(N/N=C/c2ccccn2)nc1, the GI50 (MDA-MB-468 breast) was 0.26 µM and the TGI (MDA-MB-468 breast) was 1.51 µM.

Compound COc1ccc(S(=O)(=O)Nc2cc(/C=C\c3cc(OC)c(OC)c(OC)c3)cc(OC)c2OC)cc1OC has a GI50 (MDA-MB-468 breast) of 0.269 µM and a TGI (MDA-MB-468 breast) of 1.29 µM.

In the case of CN(C)c1cc2c(cc1Sc1nc3c(N)nccc3n1CCNCC(C)(C)C)OCO2, the GI50 (MDA-MB-468 breast) is reported as 0.268 µM and the TGI (MDA-MB-468 breast) is reported as 0.888 µM.

With CNC(=O)c1cc(Oc2ccc3nc(NC(=O)c4cc(C(F)(F)F)cc(C(F)(F)F)c4)sc3c2)ccn1 the GI50 (MDA-MB-468 breast) was 3.18 µM and the TGI (MDA-MB-468 breast) was 14.2 µM.

O=C(c1ccc(F)c(F)c1Nc1ccc(I)cc1F)N1CC(O)([C@H]2CCCCN2)C1 was tested, and the GI50 (MDA-MB-468 breast) was 4.52 µM and the TGI (MDA-MB-468 breast) was 10.7 µM.

For COc1cc(-c2nn(C)nc2-c2cc3ccccc3s2)cc(OC)c1OC, the GI50 (MDA-MB-468 breast) was 0.0828 µM and the TGI (MDA-MB-468 breast) was > 100 µM.

O=C(Nc1cccc(-n2cc(-c3ccncc3)c(-c3cc(O)cc(Cl)c3)n2)c1)Nc1ccc(Cl)c(Cl)c1 showed a GI50 (MDA-MB-468 breast) of 1.71 µM and a TGI (MDA-MB-468 breast) of 7.09 µM.
